Experiments:
[1] = Material properties (granulation, stickiness, sieving) of levamlodipine besylate hydrate composition granules; assay type: physicochemical; conditions: granules of given crystalline water content, finishing of granulation, 10 mesh
Excerpt: In order to meet the requirements for the production of solid-form preparation plain tablets, the preparation is a direct compression method. As such, the granules of the active pharmaceutical ingredient need to pass through a sieve below 10 mesh to ensure content uniformity. […] A hydrate composition with a crystalline water content of less than 5.8% can meet the requirements of the finishing of granulation. […] The crystalline water content of the hydrate being controlled below 5.5% can better meet the requirements of making pharmaceutical preparations. 1. Production of Samples: the method of Example 2 is used to prepare samples with corresponding water content.

[2] = Acute toxicity (LD50, Bliss method) of levamlodipine besylate hydrate composition tablets; conditions: Kunming, mouse, in vivo
Description: In this experiment the tablet formulation is the one of Example 5, in which the crystalline water content of the levamlodipine besylate hydrate composition is 5.3%.
In this experiment, the LD50 is measured by two administration routes. […] Animals: Kunming mice, half male and half […], each weighing 18-28 g, 10 animals in each group, fasted for 16 hours before use. Dosage: Oral administration: […], 0.6580 (g/kg), intraperitoneal administration: 0.7743, 0.6582, 0.5594, 0.4755, 0.4042 (g/kg) dose gradient: 0.85. Route of administration: experimental methods of oral administration and intraperitoneal administration, 100 mice are selected, fasted for 16 hours, and randomly divided into 10 groups. Oral administration to the first 5 groups, and the dose being 0.35 ml/10 g; intraperitoneal administration to the latter 5 groups, and the dose being 0.2 ml/10 g.

[3] = Thermal stability of hydrate compositions, 45° C. oven for 5 days, impurities by HPLC; assay type: physicochemical; conditions: for Impurity Content, impurities before heating of sample: 0 days; for Impurity Content, sample placed in 45° C. oven for 5 days: amber glass bottles
Description: Using the method of Example 2 of the present invention, compositions with different crystalline water content can be prepared and used as samples to test thermal stability.
The samples are placed in amber glass bottles, placed in an oven, and the temperature is adjusted to 45° C., and the relevant substances are tested after settled for 5 days.
The test method is as follows: The chromatographic conditions and system applicability test: Use octadecylsilane-bonded silica gel as the filler; methanol-0.03 mol/L potassium dihydrogen phosphate solution (75:25) as the mobile phase, the detection wavelength is 238 nm, the number of theoretical plates should be no less than 500 calculated in levamlodipine.
Preparation of the Test Solution: Take about 17 mg of this product, precisely weigh it, put it in a 100 ml volumetric flask, add a mobile phase to dissolve and dilute to the mark, shake well, precisely measure 5 ml, put it in a 25 ml volumetric flask, add a mobile phase to the mark, shake well to obtain the solution.
Determination Method: Precisely measure 10 μl of the reference solution and the test solution, inject into the liquid chromatography machine, record the chromatogram, measure the peak area, and calculate by the external standard method.

For CCOC(=O)C1=C(COCCN)NC(C)=C(C(=O)OC)[C@@H]1c1ccccc1Cl.O=S(=O)(O)c1ccccc1 [5.5%], the “Sieving Performance” value [1] was “have no stickiness” and the Stickiness [1] was “no stickiness”.
For CCOC(=O)C1=C(COCCN)NC(C)=C(C(=O)OC)[C@@H]1c1ccccc1Cl.O=S(=O)(O)c1ccccc1 [5.8%], the “Sieving Performance” value [1] was “have essentially no” and the Stickiness [1] was “essentially no”.
In the case of CCOC(=O)C1=C(COCCN)NC(C)=C(C(=O)OC)[C@@H]1c1ccccc1Cl.O=S(=O)(O)c1ccccc1 [5.9%], the “Sieving Performance” value [1] is reported as “are less sticky”.
With CCOC(=O)C1=C(COCCN)NC(C)=C(C(=O)OC)[C@@H]1c1ccccc1Cl.O=S(=O)(O)c1ccccc1 [6.0%] the “Sieving Performance” value [1] was “stick together even”.
Compound CCOC(=O)C1=C(COCCN)NC(C)=C(C(=O)OC)[C@@H]1c1ccccc1Cl.O=S(=O)(O)c1ccccc1 [(4 s)-2-[(2-aminoethoxy)methyl]-4-(2-chlorophenyl)-6-methyl-1,4-dihydro-3,5-pyridinedicarboxylic acid-3-ethyl ester, 5-methyl ester benzenesulfonate hydrate] has an LD50 at 7 days ([2]; ip) of 16 ± 1.38 mg/kg and an LD50 at 7 days ([2]; po) of 24.9 ± 1.75 mg/kg.
In the case of CCOC(=O)C1=C(COCCN)NC(C)=C(C(=O)OC)[C@@H]1c1ccccc1Cl.O=S(=O)(O)c1ccccc1 [Sample 1], the “Impurity Content, impurities before heating of sample” value (“Impurity Content … of sample” for short) [3] is reported as “None”, the “change in the appearance” value ([3]; 45° C. oven, 5 days) is reported as “no obvious change” and the “Impurity Content, sample placed in 45° C. oven for 5 days” value (shortened to “Impurity Content, sample placed”) ([3]; 45° C. oven, 5 days) is reported as 0.07%.
In the case of CCOC(=O)C1=C(COCCN)NC(C)=C(C(=O)OC)[C@@H]1c1ccccc1Cl.O=S(=O)(O)c1ccccc1 [Sample 2], the “Impurity Content … of sample” value [3] is reported as “None” and the “Impurity Content, sample placed” value ([3]; 45° C. oven, 5 days) is reported as “None”.
For CCOC(=O)C1=C(COCCN)NC(C)=C(C(=O)OC)[C@@H]1c1ccccc1Cl.O=S(=O)(O)c1ccccc1 [Sample 3], the “Impurity Content … of sample” value [3] was “None” and the “Impurity Content, sample placed” value ([3]; 45° C. oven, 5 days) was “None”.
